Counter-ions that a name gives are not always drawn.
Legend:
[1] = test system: streptozotocin-induced diabetic mouse; experiment: Assessment (threshold analysis) of thermal nociceptive response, tail-flick test, using diabetic mouse; type: in vivo, male ICR mice
Experimental: Test: Assessment (Threshold Analysis) of Thermal Nociceptive Response Using Diabetic Mouse (in vivo)
This test was performed according to the method of Osawa and Kamei [Eur. J. Pharmacol., 372, 221–228 (1999)]. […]
The assessment was performed using a tail-flick test. To be specific, photothermic stimulation was given to the tail of mouse, and the reaction latency until it moves the tail feeling the heat was measured. How the reaction latency changed in the diabetes group as compared to the normal group and the results with administration of 100 mg/kg of CDP-choline to the diabetes group are shown in FIG. 1.
(See the Method of Osawa and Kamei [Eur. J. Pharmacol., 372, 221–228 (1999)])
Streptozotocin (200 mg/kg) dissolved in citrate buffer (pH 4.5) was administered into the tail vein of male ICR mice (12–13 per group, body weight: about 20 g) to induce diabetes. […]
The assessment was performed using a tail-flick test.
Test: Assessment (Threshold Analysis) of Thermal Nociceptive Response Using diabetic Mice (in vivo)
CDP-choline Na was dissolved in distilled water and orally administered at a dose of 100 mg/kg once a day starting from the time point when 8 weeks passed from the administration of streptozotocin. […]

[2] = test system: streptozotocin-induced diabetic mice; experiment: Charcoal powder transportability test of gastrointestinal tract using diabetic mice; type: in vivo, male ICR mice; conditions: diabetes group
Experimental: Test: Charcoal Powder Transportability Test of Gastrointestinal Tract Using Diabetic Mice (in vivo)
Streptozotocin (200 mg/kg) dissolved in citrate buffer (pH 4.5) was intraperitoneally administered to male ICR mice (7–11 per group, body weight: about 20 g) to induce diabetes.
CDP-choline Na was dissolved in distilled water and orally administered at a dose of 100 mg/kg. once a day from immediately after induction of diabetes.
The mice that had undergone streptozotocin administration 8 weeks before were used for the test. A 5% activated charcoal powder suspension was prepared using 0.5% aqueous carboxymethylcellulose solution, and orally administered at 0.1 ml/mice to mice fasted from the previous day. After 30 min, the gastrointestinal tract from pyloric portion of stomach to rectum was enucleated and the whole length was measured. In addition, the position of the activated charcoal powder after movement was confirmed and the distance of movement from pyloric portion of stomach was measured. This was converted to numerical values based on the whole length of from pyloric portion of stomach to rectum as 100%, and the data was processed and taken to show charcoal powder transportability of gastrointestinal tract.
How the charcoal powder transportability of gastrointestinal tract changed in the diabetes group as compared to the normal group and the results with administration of 100 mg/kg of CDP-choline to the diabetes group are shown in Table 1. In Table 1, the normal group, diabetes group and diabetes+CDP-choline administration group were divided into three criteria of less than 40%, not less than 40% and less than 60%, and not less than 60% of charcoal powder transportability of gastrointestinal tract, and the number of incidents in each criterion is shown in percentage.

[3] = test system: diabetic neuropathy patients; conditions: Phase III controlled clinical trial; cited from earlier work
[4] = test system: peripheral neuropathy induced by taxol; conditions: reported in WO 00/11952; cited from earlier work
[5] = 100 mg/kg oral once a day from induction, 8 weeks after streptozotocin

C[N+](C)(C)CCOP(=O)(O)OP(=O)([O-])OC[C@H]1O[C@@H](n2ccc(N)nc2=O)[C@H](O)[C@@H]1O [CDP-choline, cytidine 5′-diphosphocholine monosodium salt]
reaction latency prolongation-inhibitory effect ([1]; 100 mg/kg oral from 8 weeks post-streptozotocin, at the lapse of 11 weeks after streptozotocin): significant reaction latency prolongation-inhibitory effect was observed
inhibitory effect on prolongation of reaction latency (diminished sensation of the sensory nerves) ([1]; Example 5, oral once a day from 5 weeks post-streptozotocin, 100 mg/kg, FIG. 3 at 7 weeks, similar at 6 or 8 weeks): nearly completely inhibited
effect on prolongation of reaction latency ([1]; diabetes group, 30 mg/kg oral, from 5 weeks post-streptozotocin, data not shown): a similar effect was observed
inhibition of prolongation of reaction latency (diminished sensation) ([1]; diabetes group, 100 mg/kg oral once a day from 5 weeks post-streptozotocin, FIG. 2): almost completely inhibited
inhibition of biphasic neuropathy (reaction latency, tail-flick) ([1]; diabetes group, 100 mg/kg oral once a day from immediately after induction of diabetes, FIG. 1): almost completely inhibited
effect on reaction latency (tail-flick) ([1]; diabetes group, 300 mg/kg oral, from immediately after induction of diabetes): a similar effect was found
effect on reaction latency (tail-flick) in normal group ([1]; normal group, 100 or 300 mg/kg): no effect on the reaction latency
inhibition of degradation of charcoal powder transportability of gastrointestinal tract ([2]; 100 mg/kg oral): complete inhibition
incidence of mice with charcoal powder transportability of gastrointestinal tract less than 40% [2, 5]: 0%
incidence of mice with charcoal powder transportability of gastrointestinal tract not less than 40% and less than 60% [2, 5]: 71.4%
incidence of mice with charcoal powder transportability of gastrointestinal tract not less than 60% [2, 5]: 28.6%

Cc1cccc(C)c1OCC(C)N (stereo not shown) [mexiletine hydrochloride]
spontaneous pain relieving rate [3]: not more than 50%

CC(=O)OC[C@H]1O[C@@H](n2ccc(=O)[nH]c2=O)[C@H](OC(C)=O)[C@@H]1OC(C)=O [triacetyluridine]
efficacy for peripheral neuropathy (diminished sensation) induced by taxol [4]: effective

Source: US7074773B2, “Pharmaceutical composition for diabetic neuropathy” (priority 2001, dated 2006)
